Experimental data reported in patent US7354734B2, “Fungal proteins and nucleic acids encoding same” (priority 2003, dated 2008).
Values joined by “and” are separate entries in the source; they are usually repeats but may differ in a detail not shown here. Identical values can stand only once. Like-named read-outs stand apart in the source and are kept apart here.

Assays:
[1] = target: ruLAP2 (Trichophyton rubrum, UniProt Q5QHG6); format: biochemical; details: for ruLAP2 activity as percentage of control reaction without any cation / ruLAP2 activity as percentage of control reaction without inhibitor: Leu-MCA substrate, 15 min pre-incubation; for effect of inhibitor on ruLAP2 activity: Leu-AMC 5 mM
ruLAP2, sequence (Q5QHG6 20-495): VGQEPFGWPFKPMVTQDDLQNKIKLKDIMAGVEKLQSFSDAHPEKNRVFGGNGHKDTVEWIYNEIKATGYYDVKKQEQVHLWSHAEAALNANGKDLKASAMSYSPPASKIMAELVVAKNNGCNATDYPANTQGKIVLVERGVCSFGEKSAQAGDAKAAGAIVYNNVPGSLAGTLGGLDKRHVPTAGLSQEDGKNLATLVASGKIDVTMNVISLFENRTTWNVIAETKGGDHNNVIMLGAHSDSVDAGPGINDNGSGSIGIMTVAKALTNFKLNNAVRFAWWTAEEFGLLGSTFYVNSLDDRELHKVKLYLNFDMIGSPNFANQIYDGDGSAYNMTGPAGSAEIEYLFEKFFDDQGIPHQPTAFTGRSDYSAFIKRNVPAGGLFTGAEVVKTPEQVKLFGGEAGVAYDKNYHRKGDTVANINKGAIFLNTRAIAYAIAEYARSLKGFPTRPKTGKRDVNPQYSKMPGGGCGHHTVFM

[2] = target: T1, pkLAP (microsomal LAP from porcine kidney) (Sus scrofa, UniProt P15145); test: Effect of inhibitors and metallic cations on LAP activity (Leu-AMC); format: biochemical
T1 construct: purchased Sigma; host or cells: porcine kidney
T1 sequence (P15145 1-963): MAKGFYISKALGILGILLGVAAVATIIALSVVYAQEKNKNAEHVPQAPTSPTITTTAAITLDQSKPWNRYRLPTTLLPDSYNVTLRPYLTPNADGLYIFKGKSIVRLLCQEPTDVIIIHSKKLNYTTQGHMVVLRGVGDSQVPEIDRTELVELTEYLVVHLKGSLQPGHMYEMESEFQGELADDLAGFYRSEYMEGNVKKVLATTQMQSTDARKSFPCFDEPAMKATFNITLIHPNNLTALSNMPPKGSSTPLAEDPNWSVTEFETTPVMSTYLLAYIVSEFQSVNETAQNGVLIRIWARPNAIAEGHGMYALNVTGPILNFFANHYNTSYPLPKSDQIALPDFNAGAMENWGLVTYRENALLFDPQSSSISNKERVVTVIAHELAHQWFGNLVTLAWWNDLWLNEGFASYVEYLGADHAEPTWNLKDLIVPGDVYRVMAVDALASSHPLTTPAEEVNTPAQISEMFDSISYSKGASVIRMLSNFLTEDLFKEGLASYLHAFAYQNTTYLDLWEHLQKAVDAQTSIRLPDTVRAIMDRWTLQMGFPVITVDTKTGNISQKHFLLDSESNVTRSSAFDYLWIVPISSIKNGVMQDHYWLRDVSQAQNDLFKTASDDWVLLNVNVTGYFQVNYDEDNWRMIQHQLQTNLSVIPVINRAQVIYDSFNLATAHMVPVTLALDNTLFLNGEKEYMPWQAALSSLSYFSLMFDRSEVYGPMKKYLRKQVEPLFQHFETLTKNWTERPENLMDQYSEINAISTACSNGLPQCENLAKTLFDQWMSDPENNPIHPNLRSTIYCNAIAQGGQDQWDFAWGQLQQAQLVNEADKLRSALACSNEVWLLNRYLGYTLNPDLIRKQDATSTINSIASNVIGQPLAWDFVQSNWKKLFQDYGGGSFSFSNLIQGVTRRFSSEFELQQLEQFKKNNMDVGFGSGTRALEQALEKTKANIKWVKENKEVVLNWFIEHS

[3] = tested on: fuLAP2; format: biochemical, Aspergillus fumigatus; details: for fuLAP2 activity as percentage of control reaction without any cation / fuLAP2 activity as percentage of control reaction without inhibitor: Leu-MCA substrate, 15 min pre-incubation; for effect of inhibitor on fuLAP2 activity: Leu-AMC 5 mM
[4] = target: fuLAP1 (Aspergillus fumigatus, UniProt Q5VJG6); test: biochemical; format: biochemical; details: for effect of inhibitor on fuLAP1 activity: Leu-AMC 5 mM
fuLAP1, sequence (Q5VJG6 16-388): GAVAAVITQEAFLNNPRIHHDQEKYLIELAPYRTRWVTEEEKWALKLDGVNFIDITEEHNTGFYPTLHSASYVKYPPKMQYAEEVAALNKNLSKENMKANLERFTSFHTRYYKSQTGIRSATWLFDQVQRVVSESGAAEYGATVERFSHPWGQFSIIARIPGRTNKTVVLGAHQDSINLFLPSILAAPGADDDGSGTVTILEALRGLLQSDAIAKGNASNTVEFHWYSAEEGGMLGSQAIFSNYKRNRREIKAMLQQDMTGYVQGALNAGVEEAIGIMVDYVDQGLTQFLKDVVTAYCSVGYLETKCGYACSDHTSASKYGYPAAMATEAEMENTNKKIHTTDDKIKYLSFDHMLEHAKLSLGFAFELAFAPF

[5] = target: ruLAP1 (Trichophyton rubrum, UniProt Q5QHG5); format: biochemical; details: for effect of inhibitor on ruLAP1 activity: Leu-AMC 5 mM
ruLAP1, sequence (Q5QHG5 21-373): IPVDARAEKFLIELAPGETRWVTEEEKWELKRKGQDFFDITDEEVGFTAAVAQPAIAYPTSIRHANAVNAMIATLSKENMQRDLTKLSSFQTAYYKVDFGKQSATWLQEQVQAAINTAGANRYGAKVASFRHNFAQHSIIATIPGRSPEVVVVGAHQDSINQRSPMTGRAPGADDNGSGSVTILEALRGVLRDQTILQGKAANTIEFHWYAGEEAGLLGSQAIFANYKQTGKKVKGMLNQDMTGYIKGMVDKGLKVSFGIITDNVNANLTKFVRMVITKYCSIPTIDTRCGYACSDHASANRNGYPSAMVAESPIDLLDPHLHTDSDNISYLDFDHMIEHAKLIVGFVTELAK

[6] = tested on: gliadin 33mer (fragment 57-89 of gliadin MM1); test: Digestion of gliadin 33mer (RP-HPLC, ESI-MS); format: biochemical, wheat
[7] = cation salt 0.5 mM, Leu-MCA substrate, 15 min pre-incubation
[8] = cation salt 1 mM, Leu-MCA substrate, 15 min pre-incubation
[9] = inhibitor 500 μM, Leu-MCA substrate, 15 min pre-incubation, read-out: fuLAP1 activity as percentage of control reaction without inhibitor
[10] = inhibitor 1 mM, Leu-MCA substrate, 15 min pre-incubation
[11] = inhibitor 5 mM, Leu-MCA substrate, 15 min pre-incubation
[12] = inhibitor 500 μM, Leu-MCA substrate, 15 min pre-incubation

[Cl-].[Cl-].[Zn+2] [Zn, ZnCl2]
ruLAP2 activity as percentage of control reaction without any cation ([1]; cation salt 0.5 mM): 77.9% | ruLAP2 activity as percentage of control reaction without any cation ([1]; cation salt 1 mM): 88.9% | effect of divalent cation on pkLAP activity ([2]; Leu-AMC, cations 0.5 mM and 1 mM): highly activated | pkLAP activity as percentage of control reaction without any cation [2, 7]: 437.6% | pkLAP activity as percentage of control reaction without any cation [2, 8]: 297.9% | fuLAP2 activity as percentage of control reaction without any cation ([3]; cation salt 0.5 mM): 51.4% | fuLAP2 activity as percentage of control reaction without any cation ([3]; cation salt 1 mM): 119.5% | fuLAP1 activity as percentage of control reaction without any cation [4, 7]: 60.7% | fuLAP1 activity as percentage of control reaction without any cation [4, 8]: 53.2% | ruLAP1 activity as percentage of control reaction without any cation [5]: 43.0% and 68.9%

CC(C)C[C@@H](N)[C@H](O)C(=O)N[C@H](C(=O)N[C@H](C(=O)N[C@@H](CC(=O)O)C(=O)O)C(C)C)C(C)C [amastatin]
effect of inhibitor on ruLAP2 activity [1]: strongly or totally inhibited | effect of inhibitor on pkLAP activity [2]: strongly or totally inhibited | remaining activity at 500 µM ([2]; read-out: pkLAP activity as percentage of control reaction without inhibitor): 0% | effect of inhibitor on fuLAP2 activity [3]: strongly or totally inhibited | fuLAP2 activity as percentage of control reaction without inhibitor ([3]; inhibitor 500 μM): 0% | effect of inhibitor on fuLAP1 activity [4]: strongly or totally inhibited | remaining activity at 500 µM [4, 9]: 17% | effect of inhibitor on ruLAP1 activity [5]: strongly or totally inhibited

N=C(N)c1ccccc1 [benzamidine]
effect of inhibitor on ruLAP2 activity [1]: no clear inhibitory effects | effect of inhibitor on pkLAP activity ([2]; Leu-AMC 5 mM): no clear inhibitory effects | remaining activity at 40 µM ([2]; inhibitor 40 μM, Leu-MCA substrate, 15 min pre-incubation, read-out: pkLAP activity as percentage of control reaction without inhibitor): 75% | effect of inhibitor on fuLAP2 activity [3]: no clear inhibitory effects | fuLAP2 activity as percentage of control reaction without inhibitor ([3]; inhibitor 40 μM): 91% | effect of inhibitor on fuLAP1 activity [4]: no clear inhibitory effects | remaining activity at 40 µM ([4]; inhibitor 40 μM, Leu-MCA substrate, 15 min pre-incubation, read-out: fuLAP1 activity as percentage of control reaction without inhibitor): 77% | effect of inhibitor on ruLAP1 activity [5]: no clear inhibitory effects

CC(C)C[C@H](NC(=O)[C@@H](O)[C@H](N)Cc1ccccc1)C(=O)O [bestatin]
effect of inhibitor on ruLAP2 activity [1]: partial inhibitory effect | effect of inhibitor on pkLAP activity ([2]; Leu-AMC 5 mM): inhibited | remaining activity at 500 µM ([2]; inhibitor 500 μM, Leu-MCA substrate, 15 min pre-incubation, read-out: pkLAP activity as percentage of control reaction without inhibitor): 24% | effect of inhibitor on fuLAP2 activity [3]: partial inhibitory effect | fuLAP2 activity as percentage of control reaction without inhibitor ([3]; inhibitor 500 μM): 88% | effect of inhibitor on fuLAP1 activity [4]: inhibited | remaining activity at 500 µM [4, 9]: 11% | effect of inhibitor on ruLAP1 activity [5]: inhibited

c1cnc2c(c1)ccc1cccnc12 [orthophenanthroline]
ruLAP2 activity as percentage of control reaction without inhibitor ([1]; inhibitor 1 mM): 0% | ruLAP2 activity as percentage of control reaction without inhibitor ([1]; inhibitor 5 mM): 0% | pkLAP activity as percentage of control reaction without inhibitor [2, 10]: 0% | pkLAP activity as percentage of control reaction without inhibitor [2, 11]: 0% | fuLAP2 activity as percentage of control reaction without inhibitor ([3]; inhibitor 1 mM): 0% | fuLAP2 activity as percentage of control reaction without inhibitor ([3]; inhibitor 5 mM): 0% | fuLAP1 activity as percentage of control reaction without inhibitor [4, 10]: 0% | fuLAP1 activity as percentage of control reaction without inhibitor [4, 11]: 0% | ruLAP1 activity as percentage of control reaction without inhibitor [5, 10]: 0% | ruLAP1 activity as percentage of control reaction without inhibitor [5, 11]: 0%

O=C(O)c1cc[c]([Hg][Cl])cc1 [p-chloromercuribenzoate, p-chloromercuribenzoic acid]
effect of inhibitor on ruLAP2 activity [1]: blunted the activity | ruLAP2 activity as percentage of control reaction without inhibitor ([1]; inhibitor 500 μM): 21% | pkLAP activity as percentage of control reaction without inhibitor [2, 12]: 59% | fuLAP2 activity as percentage of control reaction without inhibitor ([3]; inhibitor 500 μM): 96% | fuLAP1 activity as percentage of control reaction without inhibitor [4, 12]: 90% | ruLAP1 activity as percentage of control reaction without inhibitor ([5]; 500 µM): 32%

Chymotrypsin
digestion of the peptide, with addition of ruLAP2 [6]: not able to breakdown | digestion of gliadin 33mer, enzyme alone ([6]; 37° C.): not able to breakdown | digestion of the peptide, with addition of DPPIV ([6]; same conditions, E/S (w:w) 1:50): not able to breakdown
